Values of other authors as cited in patent US20020141964A1, “Composition for arresting the flow of blood and method” (priority 2001, published 2002).

System: blood flowing from an open wound
Details: shown in the earlier U.S. patent of the co-inventors

Substance: potassium ferrate
- accelerated clotting of blood flowing from an open wound: effectively accomplishes the accelerated clotting of blood
